The source of these data is ChEMBL document CHEMBL1130353, “Conformational studies of paclitaxel analogs modified at the C-2' position in hydrophobic and hydrophilic solvent systems” (J Med Chem, 1997).

As a reminder, the pIC50 is the IC50 on a negative log10 scale, so that one unit is a factor of ten. High values mean a small IC50, low ones a large IC50.

What all share (type): functional, cell-based
Assay [1] concerns J774. Kind of assay: Inhibitory activity of compound against murine macrophage-like (J774.2) cell proliferation. The settings on record: Mus musculus.
Assay [2] relates to OV-1063. Kind of assay: Inhibitory activity of compound against human ovarian carcinoma (OV-1063) Cell proliferation.
Assay [3] concerns EMT6. Kind of assay: Inhibitory activity of compound against murine mammary adenocarcinoma (EMT-6) cell proliferation. The settings on record: Mus musculus.

The structures appear in SMILES notation. pIC50: −log10 of the molar value.

For `CC(=O)O[C@H]1C(=O)[C@@]2(C)C([C@H](OC(=O)c3ccccc3)[C@]3(O)C[C@H](OC(=O)C[C@@H](NC(=O)c4ccccc4)c4ccccc4)C(C)=C1C3(C)C)[C@]1(OC(C)=O)COC1C[C@@H]2O` (some centres undefined), the pIC50 in assay [1] is 6.40; in assay [2], 6.35; in assay [3], 6.52.
Turning to `CC(=O)O[C@H]1C(=O)[C@@]2(C)[C@H]([C@H](OC(=O)c3ccccc3)[C@]3(O)C[C@H](OC(=O)[C@H](O)[C@@H](NC(=O)c4ccccc4)c4ccccc4)C(C)=C1C3(C)C)[C@]1(OC(C)=O)CO[C@@H]1C[C@@H]2O` [PACLITAXEL], the pIC50 in assay [1] is 7.82; in assay [2], 7.82; in assay [3], 8.05.
Regarding `CO[C@@H](C(=O)O[C@H]1C[C@@]2(O)[C@@H](OC(=O)c3ccccc3)C3[C@]4(OC(C)=O)COC4C[C@H](O)[C@@]3(C)C(=O)[C@H](OC(C)=O)C(=C1C)C2(C)C)[C@@H](NC(=O)c1ccccc1)c1ccccc1` (some centres undefined), the values for the negative-log IC50 (pIC50) in assay [1], in assay [2] and in assay [3] were 6.33, 6.57 and 6.57, respectively.
